Test results: patent publication US20100092526A1, “NANOEMULSION THERAPEUTIC COMPOSITIONS AND METHODS OF USING THE SAME” (NanoBio Corporation, priority 2008, published 2010)
≈ marks a conversion by molar mass, not a printed value. Read-outs that look alike come from different tables or passages of the source.

How the values were obtained:
Acinetobacter baumannii = assay: MIC/MBC against clinical isolates (CLSI, alamar blue); conditions: for MBC / MIC: Acinetobacter baumannii
Pseudomonas aeruginosa [1] = assay: MIC/MBC against CF isolates (CLSI, alamar blue); conditions: Pseudomonas aeruginosa
Pseudomonas aeruginosa [2] = assay: MIC/MBC of nanoemulsions against gram-negative isolates (CLSI, alamar blue); assay type: cell-based; conditions: Pseudomonas aeruginosa (n = 5)
Escherichia coli = assay: as above; assay type: cell-based; conditions: Escherichia coli (n = 5)
Burkholderia cepacia = assay: as above; assay type: cell-based; conditions: Burkholderia cepacia (n = 5), nanoemulsions in the presence of 5 mM EDTA
Klebsiella pneumoniae = assay: as above; assay type: cell-based; conditions: Klebsiella pneumoniae (n = 5)
[3] = system: Stenotrophomonas maltophilia; assay: as above; assay type: cell-based; conditions: Stenotrophomonas maltophilia (n = 5); nanoemulsions in the presence of 5 mM EDTA
[4] = nanoemulsions in the presence of 5 mM EDTA
[5] = nanoemulsions in the presence of 5 mM EDTA, in µg/mL

SMILES: NC[C@H]1O[C@H](O[C@H]2[C@H](O)[C@@H](O[C@H]3O[C@H](CO)[C@@H](O)[C@H](N)[C@H]3O)[C@H](N)C[C@@H]2N)[C@H](N)C[C@@H]1O [Tobramycin]
- MBC (Acinetobacter baumannii; Acinetobacter isolate NB38): 16 µg/mL (≈ 34.2 µM)
- MIC (Acinetobacter baumannii; Acinetobacter isolate NB38): 1 µg/mL (≈ 2.14 µM)
- MBC (Acinetobacter baumannii; Acinetobacter isolate NB39): 4 µg/mL (≈ 8.56 µM)
- MIC (Acinetobacter baumannii; Acinetobacter isolate NB39): 2 µg/mL (≈ 4.28 µM)
- MBC (Acinetobacter baumannii; Acinetobacter isolate NB40): > 32 µg/mL
- MIC (Acinetobacter baumannii; Acinetobacter isolate NB40): > 32 µg/mL
- MBC (Acinetobacter baumannii; read-out: MBC 50, 10 Acinetobacter isolates): 4 µg/mL (≈ 8.56 µM)
- MBC (Acinetobacter baumannii; read-out: MBC 50, Acinetobacter, each drug alone): 4 µg/mL (≈ 8.56 µM)
- MBC 90 (Acinetobacter baumannii; Acinetobacter, each drug alone): >32 µg/mL
- MIC50 (Acinetobacter baumannii; Acinetobacter, each drug alone): 1 µg/mL (≈ 2.14 µM)
- MIC90 (Acinetobacter baumannii; Acinetobacter, each drug alone): 16 µg/mL (≈ 34.2 µM)
- MIC50 (Pseudomonas aeruginosa [1]): 1 µg/mL (≈ 2.14 µM)
- MIC90 (Pseudomonas aeruginosa [1]): 16 µg/mL (≈ 34.2 µM)
- MBC (Pseudomonas aeruginosa [1]; CF Pseudomonas isolate NB1): 16 µg/mL (≈ 34.2 µM)
- MIC (Pseudomonas aeruginosa [1]; CF Pseudomonas isolate NB1): 1 µg/mL (≈ 2.14 µM)
- MBC (Pseudomonas aeruginosa [1]; CF Pseudomonas isolate NB2): 2 µg/mL (≈ 4.28 µM)
- MIC (Pseudomonas aeruginosa [1]; CF Pseudomonas isolate NB2): 0.25 µg/mL (≈ 0.535 µM)
- MBC (Pseudomonas aeruginosa [1]; CF Pseudomonas isolate NB3): 4 µg/mL (≈ 8.56 µM)
- MIC (Pseudomonas aeruginosa [1]; CF Pseudomonas isolate NB3): 0.5 µg/mL (≈ 1.07 µM)
- MBC (Pseudomonas aeruginosa [1]; CF Pseudomonas isolate NB4): 4 µg/mL (≈ 8.56 µM)
- MIC (Pseudomonas aeruginosa [1]; CF Pseudomonas isolate NB4): 0.5 µg/mL (≈ 1.07 µM)
- MBC (Pseudomonas aeruginosa [1]; CF Pseudomonas isolate NB5): 4 µg/mL (≈ 8.56 µM)
- MIC (Pseudomonas aeruginosa [1]; CF Pseudomonas isolate NB5): 0.5 µg/mL (≈ 1.07 µM)
- MBC (Pseudomonas aeruginosa [1]; CF Pseudomonas isolate NB6): 4 µg/mL (≈ 8.56 µM)
- MIC (Pseudomonas aeruginosa [1]; CF Pseudomonas isolate NB6): 0.5 µg/mL (≈ 1.07 µM)
- MBC (Pseudomonas aeruginosa [1]; CF Pseudomonas isolate NB7): > 16 µg/mL
- MIC (Pseudomonas aeruginosa [1]; CF Pseudomonas isolate NB7): 1 µg/mL (≈ 2.14 µM)
- MBC (Pseudomonas aeruginosa [1]; CF Pseudomonas isolate NB8): 8 µg/mL (≈ 17.1 µM)
- MIC (Pseudomonas aeruginosa [1]; CF Pseudomonas isolate NB8): 1 µg/mL (≈ 2.14 µM)
- MBC (Pseudomonas aeruginosa [1]; CF Pseudomonas isolate NB9): 8 µg/mL (≈ 17.1 µM)
- MIC (Pseudomonas aeruginosa [1]; CF Pseudomonas isolate NB9): 1 µg/mL (≈ 2.14 µM)
- MBC (Pseudomonas aeruginosa [1]; CF Pseudomonas isolate NB10): 4 µg/mL (≈ 8.56 µM)
- MIC (Pseudomonas aeruginosa [1]; CF Pseudomonas isolate NB10): 0.5 µg/mL (≈ 1.07 µM)
- MBC (Pseudomonas aeruginosa [1]; CF Pseudomonas isolate NB11): 4 µg/mL (≈ 8.56 µM)
- MIC (Pseudomonas aeruginosa [1]; CF Pseudomonas isolate NB11): 2 µg/mL (≈ 4.28 µM)
- MBC (Pseudomonas aeruginosa [1]; CF Pseudomonas isolate NB12): 8 µg/mL (≈ 17.1 µM)
- MIC (Pseudomonas aeruginosa [1]; CF Pseudomonas isolate NB12): 0.5 µg/mL (≈ 1.07 µM)
- MBC (Pseudomonas aeruginosa [1]; CF Pseudomonas isolate NB13): 4 µg/mL (≈ 8.56 µM)
- MIC (Pseudomonas aeruginosa [1]; CF Pseudomonas isolate NB13): 1 µg/mL (≈ 2.14 µM)
- MBC (Pseudomonas aeruginosa [1]; CF Pseudomonas isolate NB14): > 32 µg/mL
- MIC (Pseudomonas aeruginosa [1]; CF Pseudomonas isolate NB14): 32 µg/mL (≈ 68.4 µM)
- MBC (Pseudomonas aeruginosa [1]; CF Pseudomonas isolate NB15): 8 µg/mL (≈ 17.1 µM)
- MIC (Pseudomonas aeruginosa [1]; CF Pseudomonas isolate NB15): 0.5 µg/mL (≈ 1.07 µM)
- MBC (Pseudomonas aeruginosa [1]; CF Pseudomonas isolate NB16): 16 µg/mL (≈ 34.2 µM)
- MIC (Pseudomonas aeruginosa [1]; CF Pseudomonas isolate NB16): 2 µg/mL (≈ 4.28 µM)
- MBC (Pseudomonas aeruginosa [1]; CF Pseudomonas isolate NB17): 32 µg/mL (≈ 68.4 µM)
- MIC (Pseudomonas aeruginosa [1]; CF Pseudomonas isolate NB17): 16 µg/mL (≈ 34.2 µM)
- MBC (Pseudomonas aeruginosa [1]; CF Pseudomonas isolate NB18): > 32 µg/mL
- MIC (Pseudomonas aeruginosa [1]; CF Pseudomonas isolate NB18): 16 µg/mL (≈ 34.2 µM)
- MBC (Pseudomonas aeruginosa [1]; CF Pseudomonas isolate NB19): 16 µg/mL (≈ 34.2 µM)
- MIC (Pseudomonas aeruginosa [1]; CF Pseudomonas isolate NB19): 2 µg/mL (≈ 4.28 µM)
- MBC (Pseudomonas aeruginosa [1]; CF Pseudomonas isolate NB20): 8 µg/mL (≈ 17.1 µM)
- MIC (Pseudomonas aeruginosa [1]; CF Pseudomonas isolate NB20): 0.5 µg/mL (≈ 1.07 µM)
- MBC (Pseudomonas aeruginosa [1]; read-out: MBC 50, 20 CF Pseudomonas isolates): 8 µg/mL (≈ 17.1 µM)
- MBC (Pseudomonas aeruginosa [1]; read-out: MBC 50, second MBC 50 line of the summary, Stenotrophomonas, values equal those of the CF Pseudomonas isolates): 8 µg/mL (≈ 17.1 µM)
- MBC (Pseudomonas aeruginosa [1]; read-out: MBC 90, 20 CF Pseudomonas isolates): > 16 µg/mL
- MBC (Pseudomonas aeruginosa [1]; read-out: MBC 90, second MBC 90 line of the summary, Stenotrophomonas, values equal those of the CF Pseudomonas isolates): > 16 µg/mL
- % resistant (Pseudomonas aeruginosa [2]): 0.0%
- % susceptible (Pseudomonas aeruginosa [2]): 100.0%
- MIC50 (Pseudomonas aeruginosa [2]; [4]): 0.5 µg/mL
- MIC Range (Pseudomonas aeruginosa [2]; [5]): 0.25-1
- % resistant (Escherichia coli): 20.0%
- % susceptible (Escherichia coli): 80.0%
- MIC50 (Escherichia coli; [4]): 0.5 µg/mL
- MIC Range (Escherichia coli; [5]): 0.25-16
- MIC50 (Burkholderia cepacia): > 16 µg/mL
- MIC Range (Burkholderia cepacia; in µg/mL): >16
- % resistant (Klebsiella pneumoniae): 20.0%
- % susceptible (Klebsiella pneumoniae): 80.0%
- MIC50 (Klebsiella pneumoniae; [4]): 0.25 µg/mL
- MIC Range (Klebsiella pneumoniae; [5]): 0.25-16
- MIC50 [3]: > 16 µg/mL
